Assay results reported in patent US20250025553A1, “COMBINATION THERAPY FOR CANCER” (Medannex Ltd., priority 2021, published 2025).
“Also recorded” adds a separate entry of the source. Where two headings read alike, the source gives them in different places.

What was measured:
[1] = system: MIA PaCa-2 pancreatic cancer cell line; assay: MTT cell proliferation assay, MIA PaCa-2; type: cell-based, human
Procedure: (§1) The cell lines were obtained from Public Health England Culture Collections. MIA-PaCa-2 is a human pancreatic carcinoma cell line; PANC-1 is a human pancreatic epithelioid carcinoma cell line.
(§2) Assays were performed in triplicate.
(§3) Cells were then cultured for 24 hr prior to assay, then cell proliferation was measured.
(§4) With both cell lines 5FU was used at its IC50. The IC50 concentration represents the concentration at which a substance exerts half of its maximal inhibitory effect. The IC50 for each cell line was calculated by treating with a series of 10-fold dilutions of 5FU ranging from 1 nM to 10 mM. The MTT assay was used to calculate cancer cell viability after 72 hr incubation with 5FU at each concentration.

[2] = system: PANC-1 pancreatic cancer cell line; assay: MTT cell proliferation assay, PANC-1; type: cell-based, human; details: for IC50: Homo sapiens, PANC-1, MTT
Procedure: as §1, §2, §3, §4

[3] = system: Human multiple myeloma cell lines (H929, JJN3 and U266); assay: Apoptosis assay (Annexin V and 7-AAD labelling, flow cytometry); type: cell-based; details: MDX-124 20 μM, bortezomib 20 nM or both (1000:1), 48 h
Procedure: The effect of MDX-124, bortezomib and the combination of both agents on apoptosis was assessed using Annexin V and 7-AAD labelling. Human multiple myeloma cell lines (H929, JJN3 and U266, all from DSMZ, Leibniz Institute, German Collection of Microorganisms and Cell Cultures, GmbH, Germany) were incubated with either MDX-124 (20 μM), bortezomib (20 nM, Cell Signaling Technology, MA, USA) or the combination of both agents (fixed molar ratio of 1000:1) in 1 mL of RPMI media supplemented with 10% FCS for 48 h. The percentage of apoptosis above untreated control cell levels was quantified using flow cytometry for each respective treatment group.

p-BCL2 (pS70) = assay: Expression of apoptosis related protein p-BCL2 (flow cytometry); type: cell-based, human; details: MDX-124 20 μM, bortezomib 20 nM or both, 4 h; multiple myeloma cell lines
Procedure: (§5) The effects of MDX-124, bortezomib and the combination of both agents on the expression of 2 apoptosis related proteins, p-BCL2 and p-STAT3, was assessed using flow cytometry. Aliquots of each human multiple myeloma cell line were treated with either MDX-124 (20 μM), bortezomib (20 nM) or a combination of MDX-124 and bortezomib for 4 h prior to staining with an Alexa488-labelled p-STAT3 (Tyr705, from BD Biosciences, catalogue #557814) antibody and a PE-labelled p-BCL2 ([…], BD Biosciences, catalogue #562532) antibody. Mean fluorescence intensity values for each treatment group were compared with untreated control cells.

p-STAT3 (Tyr705) = assay: Expression of apoptosis related protein p-STAT3 (flow cytometry); type: cell-based, human; details: MDX-124 20 μM, bortezomib 20 nM or both, 4 h; multiple myeloma cell lines
Procedure: as §5

interleukin-6 (IL-6) = assay: Intracellular IL-6 expression (flow cytometry); type: cell-based, human; details: MDX-124 20 μM, bortezomib 20 nM or both, 24h; multiple myeloma cell lines
Procedure: The effects of each agent, both alone and in combination, on the expression of interleukin-6 (IL-6) were assessed using flow cytometry. […] Mean fluorescence intensity values for IL-6 for each respective treatment group were compared with untreated control cells.

[4] = system: triple-negative breast cancer cell line HCC1806; assay: MTT cell proliferation assay, HCC1806
LL/2 lung cancer cells = assay: LL/2 murine model of lung cancer; type: in vivo, C57BL/6 mice; details: LL/2, MDX-124 10 mg/kg weekly, anti-PD-1 10 mg/kg twice weekly; two-way repeated measures ANOVA/mixed-effects model
Procedure: Drugs were administered as described above. Tumour volume was measured at days 2, 5, 8, 12 and 15, at which point the vehicle and monotherapy groups were terminated. The combination therapy group was measured again at day 19 and then terminated.
Results were analysed using a two-way repeated measures ANOVA/mixed-effects model. […] No body weight loss was detected in this study.

[5] = system: EMT6 triple-negative breast cancer cells; assay: EMT6 mouse model of breast cancer; type: in vivo, BALB/c mice
Procedure: Nine-week-old female BALB/c mice were inoculated subcutaneously with 5×10^5 EMT6 triple-negative breast cancer cells. […] Tumour volume was measured twice weekly for 3 weeks. The anti-PD-1 antibody used is the mouse antibody RMP-1-14 (Yamazaki et al., Journal of Immunology 175(3): 1586-1592, 2005); PBS was administered by intraperitoneal injection; antibodies were administered by intravenous injection.

O=c1[nH]cc(F)c(=O)[nH]1 [5FU, 5-fluorouracil, reference compound]
IC50 ([1]; Homo sapiens, MIA PaCa-2, MTT, 72 hr incubation, repeated 8 times, read-out: IC50 of 5FU (concentration at which 50% of cells were not viable)): 100 µM
IC50 ([2]; 72 hr incubation, repeated 8 times, read-out: IC50 of 5FU (concentration at which 50% of cells were not viable)): 1000 µM

CC(C)C[C@H](NC(=O)[C@H](Cc1ccccc1)NC(=O)c1cnccn1)B(O)O [bortezomib, reference compound]
apoptosis (percentage above untreated control cell levels) [3]: significantly induced apoptosis
expression of p-BCL2 (mean fluorescence intensity vs untreated control cells) (p-BCL2 (pS70)): reduced the expression
expression of p-STAT3 (mean fluorescence intensity vs untreated control cells) (p-STAT3 (Tyr705)): reduced the expression
intracellular IL-6 expression (mean fluorescence intensity vs untreated control cells) (interleukin-6 (IL-6)): modestly reduced

N.N.[Cl][Pt][Cl] [cisplatin, reference compound]
IC50 ([4]; read-out: IC50 of cisplatin (concentration at which 50% of cells were not viable), HCC1806, MTT, repeated four times): 650 nM

Nc1ccn([C@@H]2O[C@H](CO)[C@@H](O)C2(F)F)c(=O)n1 [gemcitabine, reference compound]
IC50 ([2]; repeated three times, read-out: IC50 of gemcitabine (concentration at which 50% of cells were not viable)): 20 µM

CC(=O)O[C@H]1C(=O)[C@@]2(C)[C@H]([C@H](OC(=O)c3ccccc3)[C@]3(O)C[C@H](OC(=O)[C@H](O)[C@@H](NC(=O)c4ccccc4)c4ccccc4)C(C)=C1C3(C)C)[C@]1(OC(C)=O)CO[C@@H]1C[C@@H]2O [paclitaxel, reference compound]
IC20 ([4]; Homo sapiens, HCC1806, read-out: IC20 of paclitaxel (concentration at which 20% of cells were not viable)): 0.4 nM

MDX-124: humanised IgG1 antibody against ANXA1 with a light chain of SEQ ID NO: 13 and a heavy chain of SEQ ID NO: 14
anti-proliferative effect, single agent ([1]; MIA PaCa-2, MDX-124 alone 2.5-10 μM, 72 hours, vs IgG isotype control): significantly reduces cancer cell proliferation; also recorded: relatively potent anti-proliferative effect
anti-proliferative effect, single agent ([2]; PANC-1, MDX-124 alone 2.5-10 μM, 72 hours, vs IgG isotype control): significantly reduces cancer cell proliferation; also recorded: relatively potent anti-proliferative effect
tumour growth compared to vehicle (and monotherapies) (LL/2 lung cancer cells): No significant differences
apoptosis (percentage above untreated control cell levels) [3]: had an impact on apoptosis
expression of p-BCL2 (mean fluorescence intensity vs untreated control cells) (p-BCL2 (pS70)): reduced the expression
expression of p-STAT3 (mean fluorescence intensity vs untreated control cells) (p-STAT3 (Tyr705)): reduced the expression
intracellular IL-6 expression (mean fluorescence intensity vs untreated control cells) (interleukin-6 (IL-6)): modestly reduced
anti-proliferative effect, single agent ([4]; HCC1806, MDX-124 alone 2.5-10 μM, vs IgG isotype control): significantly reduces cancer cell proliferation; also recorded: anti-proliferative effect

B1: MDX-001: murine anti-ANXA1 antibody, parent of MDX-124; light and heavy chains of SEQ ID NOs: 30 and 31 (antibody, listed as Mus musculus)
heavy: QVQLQQSGPELVRPGTSVKMSCKASGYTFTNYWIGWAKQRPGHGLEWIGDIYPGGDYTNYNEKFKGKATLTADKSSSTAYMQFSSLTSEDSAIYYCARWGLGYYFDYWGQGITLTVSSAKTTPPSVYPLAPGCGDTTGSSVTLGCLVKGYFPESVTVTWNSGSLSSSVHTFPALLQSGLYTMSSSVTVPSSTWPSQTVTCSVAHPASSTTVDKKLEPSGPISTINPCPPCKECHKCPAPNLEGGPSVFIFPPNIKDVLMISLTPKVTCVVVDVSEDDPDVQISWFVNNVEVHTAQTQTHREDYNSTIRVVSTLPIQHQDWMSGKEFKCKVNNKDLPSPIERTISKIKGLVRAPQVYILPPPAEQLSRKDVSLTCLVVGFNPGDISVEWTSNGHTEENYKDTAPVLDSDGSYFIYSKLNMKTSKWEKTDSFSCNVRHEGLKNYYLKKTISRSPGK
light: DAVMTQTPLSLPVSLGDQVSISCRSSQSLENSNGKTYLNWYLQKPGQSPQLLIYGVSNRFSGVLDRFSGSGSGTDFTLKISRVEAEDLGVYFCLQVTHVPYTFGGGTKLEIKRADAAPTVSIFPPSSEQLTSGGASVVCFLNNFYPKDINVKWKIDGSERQNGVLNSWTDQDSKDSTYSMSSTLTLTKDEYERHNSYTCEATHKTSTSPIVKSFNRNEC
tumour growth compared to the vehicle control ([5]; EMT6, MDX-001 10 mg/kg weekly, anti-PD-1 10 mg/kg twice weekly, i.v., 3 weeks): did not significantly affect tumour growth
adverse effects ([5]; EMT6 model): no adverse effects
tumour growth compared to vehicle (and monotherapies) (LL/2 lung cancer cells): neither MDX-001 nor the anti-PD-1 antibodies displayed efficacy
